One experiment concerns the target T1, rat-type OT7T022 (Rattus norvegicus, UniProt Q9EP86).
T1 construct: expressed in transfected cells; host or cells: CHO cells (membrane fraction)
Kind of experiment: Binding inhibiting activity using rat-type OT7T022-expressing CHO cell membrane fraction. The following applies: iodine-labeled Y-RFRP-3 100 pM, membrane fraction 0.75 μg/well. Here is the method: Assessment of Binding Inhibiting Activity of Test Compound Using Rat-Type OT7T022-Expressing CHO Cell
A flask in which a rat-type OT7T022-expressing CHO cell had been cultured was washed with 5 mM EDTA/PBS, cells were peeled with 5 mM EDTA/PBS, and cells were recovered by centrifugation, suspended in 25 mL of a buffer for preparing a membrane fraction (50 mM Tris-HCl, pH 7.5, 5 mM EDTA, 0.5 mM PMSF (manufactured by Wako Pure Chemical Industries, Ltd.), […] (manufactured by Peptide Laboratory), 0.1 μg/mL pepstatin A (manufactured by Peptide Laboratory), 4 μg/mL E-64 (manufactured by Peptide Laboratory)), and homogenized on an ice using Polytron (12,000 rpm, 15 seconds×3 times). This was centrifuged in a high speed cooling centrifuge at 4° C. and 1,000 g for 10 minutes, and the supernatant was recovered. 25 mL of a buffer for preparing a membrane fraction was added to precipitates, and the supernatant was recovered by the same procedure. These supernatants were combined, subjected to a cell strainer, dispensed into tubes for a supercentrifuge, and centrifuged at 4° C. and 100,000 g for 1 hour. The pellet was suspended in a small amount of a buffer for preparing a membrane fraction, this was suspended using a Teflon (registered trade mark) homogenizer, a protein amount was measured using a part, and the remaining was dispensed, and stored at −80° C.
Using an assay buffer (50 mM Tris-HCl, pH 7.5, 5 mM EDTA, 0.5 mM PMSF, 20 μg/mL leupeptin, 0.1 μg/mL pepstatin A, 4 μg/mL E-64, 0.1% bovine serum albumin, 10 mM MgCl2), a membrane fraction of a rat-type OT7T022-expressing CHO cell was diluted to the final concentration of 0.75 μg/well, and iodine-labeled Y-RFRP-3 was diluted to the final concentration of 100 pM. Regarding a sample compound, a 10^−2M or 10^−3M stock solution was diluted with an assay buffer so that the final concentration became 10^−5M, 10^−6M, 10^−7M, 10^−8M, 10^−9M, 10^−10M or 10^−11M. For non-specific binding, hRFRP-3-8 having the final concentration of 10^−5M was prepared. Using a polypropylene 96-well plate, a prepared sample solution, a non-specific binding solution, and 50 μl of an assay buffer for total binding were dispensed, 25 μl of an iodine-labeled form diluent was added, the mixture was stirred, 25 μl of a rat-type OT7T022-expressing CHO cell membrane fraction solution was dispensed, and this was stirred, and incubated at room temperature for 1.5 hours. This was transferred to a unifilter (Perkin Elmer) pre-wetted with a washing buffer (50 mM Tris-HCl, pH 7.5) using a harvester for a 96-well plate (Packard), and this was washed with a washing buffer six times, and sufficiently dried. 50 μl of Microscinti O (Packard) was dispensed, radioactivity was measured with Top Count (Packard), and data were analyzed in a triplicate manner. Binding inhibiting activity (IC50 value) of a test compound for rat-type OT7T022 is shown in [Table 3].

The target of a further experiment is T2, human-type OT7T022 (Homo sapiens, UniProt Q9GZQ6).
T2 construct: expressed in transfected cells; host or cells: CHO cells (membrane fraction)
Nature of the experiment: Binding inhibiting activity using human-type OT7T022-expressing CHO cell. The following applies: 125I-labeled Y-RFRP-3 100 pM, membrane fraction, room temperature 1.5 hours; read-out: IC50 value (binding inhibiting rate). The protocol:
Assessment of Binding Inhibiting Activity of Test Compound Using Human-Type OT7T022-Expressing CHO Cell
Twenty μm of a peptide (Y-RFRP-3) (sequence: Tyr-Val-Pro-Asn-Leu-Pro-Gln-Arg-Phe-amide) (0.1 mM) in which a Tyr residue had been added to a N-terminus of hRFRP-3-8 (sequence: Val-Pro-Asn-Leu-Pro-Gln-Arg-Phe-amide) having binding inhibiting activity equivalent to that of endogenous human-type RFRP-3 (hRFRP-3-28) for human-type OT7T022-expressing CHO cell and 10 μl of distilled water were mixed, 20 μl of a lactoperoxidase solution (Sigma, prepared using 0.1 M HEPES-NaOH, pH 7.0 in 10 μg/mL), 10 μl of Iodine-125 (Amersham, IMS-30, 74 MBq), and 20 μl of 0.005% hydrogen peroxide (Wako Pure Chemical Industries, Ltd.) were successively mixed therein, the mixture was allowed to stand at room temperature for 10 minutes, 600 μl of 0.1% TFA-water was added, this was separated by reverse phase HPLC, a peak of the labeled form was collected, an equivalent amount of a buffer for a binding test (50 mM TrisHCl (pH 7.5), 0.1% BSA, 5 mM EDTA, 0.5 mM PMSF, 20 μg/mL leupeptin, 0.1 μg/mL pepstatin A, […]) was added, and this was immediately stored on ice. A part thereof was 1/100 diluted, radioactivity was measured with a γ-counter, and the remaining authentic product was distributed, which was stored at −30° C.
To a 96-well microplate were added 1 μg of a membrane fraction, a compound and Y-RFRP-3 labeled with ^125I, which had been diluted with a reaction buffer (50 mM Tris-HCl, 5 mM EDTA, 0.1% BSA, 0.5 mM PMSF, 20 μg/ml leupeptin, 0.1 μg/ml pepstatin A, 4 μg/ml E-64, 10 mM MgCl2, pH 7.5), to 100 pM to react them at room temperature for 1.5 hours. For measuring non-specific binding, non-labeled Y-RFRP-3 was further added to […]. Then, a membrane fraction was transferred to a unifilter GF/C (Perkin Elmer) by filtering the reaction mixture using a cell harvester (Perkin Elmer), and this was washed with a cooled 50 mM Tris buffer (pH 7.5) five times. The filter was dried, Microsinti (Packard) was added to the filter, and radioactivity was measured with Topcount (Packard).
A binding inhibiting rate (IC50 value) of a test compound is shown in [Table 1].

In the next experiment the test system is RFRP-1-administered rats. Kind of experiment: Inhibitory activity of increase in blood glucose and blood glucagon concentration in RFRP-1-administered rats. It counts as in vivo, rat.
Another experiment deals with ICR mouse. Kind of experiment: Analgesic activity in mouse, SP-it test method. It counts as in vivo. To be noted: for Chewing time: counted for 1 minute. Here is the method:
Analgesic Activity in Mouse
Analgesic activity of an RFRP receptor antagonist on provisional pain caused by intrathecal injection (it administration) of substance P (SP) was investigated. In a test, one group (10 animals) of an ICR mouse (♂), 5 week old, was used. A skin of a back of a mouse was excised under ether anesthesia and, after 3 hours or longer recovering time, substance P (SP) was dissolved in a physiological saline, and this was administered by intrathecal injection (between L5-L6) at 10 ng/5 μL/mouse. A physiological saline and the compound of Example 50 were administered by intrathecal injection as a mixed solution with substance P (SP) at a dose of 1, 3 or 10 μg/mouse. From immediately after administration, the number of alternate chewing at a lower abdomen by a mouse was counted for 1 minute, and the time was used as an index for a provisional pain reaction due to substance P (SP).

Structures can show the parent of a compound that is named as a salt.

T1 sequence (Q9EP86 whole entry): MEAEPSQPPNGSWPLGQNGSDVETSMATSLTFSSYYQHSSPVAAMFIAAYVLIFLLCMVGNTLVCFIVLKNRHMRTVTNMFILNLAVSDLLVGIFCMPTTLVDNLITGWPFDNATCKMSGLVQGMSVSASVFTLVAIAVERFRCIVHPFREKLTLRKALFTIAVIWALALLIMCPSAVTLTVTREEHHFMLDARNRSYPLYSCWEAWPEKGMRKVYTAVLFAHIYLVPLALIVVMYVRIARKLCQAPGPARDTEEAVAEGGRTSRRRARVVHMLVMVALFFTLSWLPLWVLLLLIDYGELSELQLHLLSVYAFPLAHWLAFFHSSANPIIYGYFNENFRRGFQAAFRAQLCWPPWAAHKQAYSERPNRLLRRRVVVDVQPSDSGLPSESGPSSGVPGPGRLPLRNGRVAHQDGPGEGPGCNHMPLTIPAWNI
T2 sequence (Q9GZQ6 whole entry): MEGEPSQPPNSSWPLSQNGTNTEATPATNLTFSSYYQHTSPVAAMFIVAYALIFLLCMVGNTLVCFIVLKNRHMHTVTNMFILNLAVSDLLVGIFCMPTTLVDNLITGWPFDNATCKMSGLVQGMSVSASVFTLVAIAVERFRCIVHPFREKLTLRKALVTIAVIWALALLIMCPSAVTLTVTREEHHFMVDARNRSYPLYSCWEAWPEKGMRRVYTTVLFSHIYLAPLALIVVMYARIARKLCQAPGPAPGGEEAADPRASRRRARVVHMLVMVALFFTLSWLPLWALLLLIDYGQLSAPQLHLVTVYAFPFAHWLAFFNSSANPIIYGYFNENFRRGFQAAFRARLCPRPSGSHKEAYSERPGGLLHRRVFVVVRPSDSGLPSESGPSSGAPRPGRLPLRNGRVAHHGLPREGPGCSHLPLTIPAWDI

On to `CCCCCNCCCOc1cccc([C@H]2O[C@H](CC(=O)NCc3ccccc3F)C(=O)N(CC(C)(C)C)c3ccc(Cl)cc32)c1OC` (relative stereo) [Example 4, 2-{3,5-trans-7-Chloro-1-(2,2-dimethylpropyl)-5-[2-methoxy-3-(3-(pentylamino)propoxy)phenyl]-2-oxo-1,2,3,5-tetrahydro-4,1-benzoxazepin-3-yl}-N-(2-fluorobenzyl)acetamide hydrochloride], for which the IC50 at rat-type OT7T022 and at human-type OT7T022 was below 1000 nM in each case.
Consider `COc1c(OCCCNCCCc2ccccc2Cl)cccc1[C@H]1O[C@H](CC(=O)NCc2ccccc2F)C(=O)N(CC(C)(C)C)c2ccc(Cl)cc21` (relative stereo) [Example 14, trans-2-{7-Chloro-5-[3-(3-{[3-(2-chlorophenyl)propyl]amino}propoxy)-2-methoxyphenyl]-1-(2,2-dimethylpropyl)-2-oxo-1,2,3,5-tetrahydro-4,1-benzoxazepin-3-yl}-N-(2-fluorobenzyl)acetamide hydrochloride], for which the IC50 at rat-type OT7T022 and on human-type OT7T022 was below 1000 nM in each case.
In the case of `COc1c(OCCCNC/C=C/c2ccccc2)cccc1[C@H]1O[C@H](CC(=O)NCc2ccccc2F)C(=O)N(CC(C)(C)C)c2ccc(Cl)cc21` (relative stereo) [Example 18, trans-2-[7-Chloro-1-(2,2-dimethylpropyl)-5-[2-methoxy-3-(3-{[(2E)-3-phenyl-2-propenyl]amino}propoxy)phenyl]-2-oxo-1,2,3,5-tetrahydro-4,1-benzoxazepin-3-yl]-N-(2-fluorobenzyl)acetamide hydrochloride], the 50% inhibitory concentration (IC50) on rat-type OT7T022 and on human-type OT7T022 was below 1000 nM in each case.
In the case of `CCCNC(=O)C[C@H]1O[C@H](c2cccc(OCCCNCCCc3ccccc3)c2OC)c2cc(Cl)ccc2N(CC(C)(C)C)C1=O` (relative stereo) [Example 46, trans-2-[7-Chloro-1-(2,2-dimethylpropyl)-5-(2-methoxy-3-{3-[(3-phenylpropyl)amino]propoxy}phenyl)-2-oxo-1,2,3,5-tetrahydro-4,1-benzoxazepin-3-yl]-N-propylacetamide hydrochloride], the IC50 at rat-type OT7T022 and on human-type OT7T022 was below 1000 nM in each case.
For the compound `COc1c(OCCCNCCCc2ccccc2)cccc1[C@H]1O[C@H](CC(=O)N2CCNCC2)C(=O)N(CC(C)(C)C)c2ccc(Cl)cc21.Cl.Cl` (relative stereo) [Example 50, trans-7-Chloro-1-(2,2-dimethylpropyl)-5-(2-methoxy-3-{3-[(3-phenylpropyl)amino]propoxy}phenyl)-3-[2-oxo-2-(1-piperazinyl)ethyl]-1,5-dihydro-4,1-benzoxazepine-2(3H)-one dihydrochloride], the IC50 on rat-type OT7T022 and at human-type OT7T022 was below 1000 nM each time. For the same compound, in the experiment on RFRP-1-administered rats (5 mg/kg intravenous), the “inhibition of activity of increasing blood glucose concentration due to RFRP-1” value is reported as “inhibited significantly (p<0.01, n=4)”. In addition, the “inhibition of activity of increasing blood glucagon concentration due to RFRP-1” value in the experiment on RFRP-1-administered rats (5 mg/kg intravenous, 2 minutes after administration of RFRP-1 (p<0.05)) is recorded as “significantly inhibited”; in the experiment with RFRP-1-administered rats (5 mg/kg intravenous, 5 minutes after administration of RFRP-1 (p<0.001)), “significantly inhibited”. The “inhibition of increase in blood glucagon concentration due to RFRP-1” value in the experiment on RFRP-1-administered rats (0.2, 1 or 5 mg/kg intravenous 5 minutes before RFRP-1) was “inhibits increase in a blood glucagon concentration due to RFRP-1 in a dose dependent manner”. Also, the “inhibition of increase in blood glucose concentration due to RFRP-1” value in the experiment with RFRP-1-administered rats (0.2, 1 or 5 mg/kg intravenous 5 minutes before RFRP-1, vs control group) is given as “inhibits increase in a blood glucose concentration due to RFRP-1 in a dose dependent manner”. For the same compound, in the experiment with ICR mouse (1, 3 or 10 μg/mouse intrathecal), the “analgesic activity (pain reaction due to substance P)” value is “a pain reaction due to substance P (SP) is inhibited in a dose dependent manner”. For the same compound, the Chewing time with ICR mouse (dose 1 μg/mouse intrathecal with substance P 10 ng/mouse) is 71.8 ± 5.1; in the experiment on ICR mouse (dose 3 μg/mouse intrathecal with substance P 10 ng/mouse), 18.6 ± 4.1; in the experiment on ICR mouse (dose 10 μg/mouse intrathecal with substance P 10 ng/mouse) it was 0.0 ± 0.0. The “decrease in the chewing time” value with ICR mouse (dose of 3 and 10 μg/mouse intrathecal) is recorded as “significant (p<0.01) decrease in the chewing time”.
In the case of `COc1c(OCCCNCCCc2ccccc2)cccc1[C@H]1O[C@H](CC(=O)N2CCC(O)CC2)C(=O)N(CC(C)(C)C)c2ccc(Cl)cc21` (relative stereo) [Example 85, trans-7-Chloro-1-(2,2-dimethylpropyl)-3-[2-(4-hydroxypiperidin-1-yl)-2-oxoethyl]-5-(2-methoxy-3-{3-[(3-phenylpropyl)amino]propoxy}phenyl)-1,5-dihydro-4,1-benzoxazepine-2(3H)-one hydrochloride], the IC50 at rat-type OT7T022 and on human-type OT7T022 was below 1000 nM throughout.
For `COc1c(OCCCNCCCc2ccccc2)cccc1[C@H]1O[C@H](CC(=O)N2CCNC(C(=O)O)C2)C(=O)N(CC(C)(C)C)c2ccc(Cl)cc21` (relative stereo) [Example 86, 4-{[3,5-trans-7-Chloro-1-(2,2-dimethylpropyl)-5-(2-methoxy-3-{3-[(3-phenylpropyl)amino]propoxy}phenyl)-2-oxo-1,2,3,5-tetrahydro-4,1-benzoxazepin-3-yl]acetyl}piperazine-2-carboxylic acid dihydrochloride], the IC50 at rat-type OT7T022 and on human-type OT7T022 was below 1000 nM each time.
